According to patent publication US11999732B2, “P2X3 receptor antagonists” (RECORDATI INDUSTRIA CHIMICA E FARMACEUTICA SPA, priority 2018, dated 2024):
Like-named read-outs stand apart in the source and are kept apart here.

Target: T1, human P2X3 receptor (Homo sapiens, UniProt P56373)
T1 construct: expressed in transfected cells; host or cells: CHO-K1
T1 sequence (P56373 1-397): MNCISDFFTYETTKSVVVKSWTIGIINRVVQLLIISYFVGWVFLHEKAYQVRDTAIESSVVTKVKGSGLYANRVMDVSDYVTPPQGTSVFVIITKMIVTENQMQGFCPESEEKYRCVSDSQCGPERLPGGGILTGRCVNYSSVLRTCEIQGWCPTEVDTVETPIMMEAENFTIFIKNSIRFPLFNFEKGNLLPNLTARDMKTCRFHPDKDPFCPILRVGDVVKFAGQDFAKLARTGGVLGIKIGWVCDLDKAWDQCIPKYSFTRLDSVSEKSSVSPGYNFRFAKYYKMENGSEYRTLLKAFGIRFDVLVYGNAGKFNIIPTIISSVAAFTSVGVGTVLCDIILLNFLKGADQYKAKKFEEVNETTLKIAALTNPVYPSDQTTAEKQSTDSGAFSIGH
Assay: Calcium luminescence (photoprotein) assay in CHO-K1 cells co-expressing human P2X3 receptor, α,β-Met-ATP stimulation, FLEXSTATION readout
Format: cell-based
Conditions: human P2X3 receptor antagonist activity, CHO-K1 cells, α,β-Met-ATP, read-out: h-P2X3 IC50
Description: The assay for the human purinergic P2X3 receptor has been adapted to the internal screening instrumentation using the FLEXSTATION as reader and a photoprotein as luminescent readout. The assay consists of CHO-K1 cells recombinantly co-expressing the human P2rx3 receptor and a Ca^2+ sensitive photoprotein. Cells are maintained in DMEM F-12 (1:1) mixture (LONZA cat. no BE04-687F/U1) supplemented with 9 mL of 100 mM Sodium Pyruvate (LONZA cat. no BE13-115E), 29 mL of 7.5% Sodium Bicarbonate (LONZA cat. no: BE17-613E), 5.5 mL of 1 M Hepes (LONZA cat. no BE17-737E), 5 mL of 100× Penicillin/Streptomycin (LONZA cat. no DE17-602E) and 50 mL of Fetal Bovine Serum (Sigma cat. no F7524), 1 mg/mL G418 (Sigma cat. no G8168) and 5 µg/ml puromycin (Sigma cat. no P9620). Standard propagation conditions consist of seeding in a P75 flask twice a week, recovering about 20×10^6 cells, corresponding to about 80% confluency. Cells were seeded into black-walled clear bottom 96 well plates at a density of 40000 cells/well in a Tyrode's buffer (Standard Tyrode's buffer: in house solution, 130 mM NaCl, 5 mM KCl, 2 mM CaCl2, 5 mM NaHCO3, 1 mM MgCl2, 20 mM HEPES, pH 7.4). After 24 h the culture medium was replaced with 200 μL/well of coelenterazine in Tyrode's buffer (Coelenterazine: from BIOSYNTH (cat. no C-7001). 10 mM stock solution was prepared in DMSO and glutathione and stored at −20° C.). The plates were incubated for 4 hours at 37° C., and injected with 10 μL/well of test compounds at 25× concentration in Tyrode's buffer. After 4 minutes a second injection of 50 μL/well of 5× α,β-Met-ATP in Tyrode's buffer (α,β-Met-ATP: from Tocris (cat. no 3209), was dissolved at 100 mM in water and stored in aliquots at −20° C.) was performed and the signal of the emitted luminescence was recorded by FLEXSTATION III (Molecular Devices).
The inhibition curves of the tested compounds at cloned P2X3 receptor were determined by nonlinear regression analysis using software Prism 4.0 (Graphpad, San Diego, Calif.). The IC50 values and pseudo-Hill slope coefficients were estimated by the program.

Structure (SMILES)	IC50 (Table 6)	IC50 (Table 7)	also measured
CC(C)(C)c1nnc2c3ncc(N4CCOCC4)cc3n(Cc3ccc(Cl)cn3)c(=O)n12 [Example 173, 3-tert-butyl-6-[(5-chloropyridin-2-yl)methyl]-8-(morpholin-4-yl)pyrido[2,3-e][1,2,4]triazolo[4,3-c]pyrimidin-5(6H)-one]			IC50 (Table 9): 0.00259 µM
COc1cc(CN2C(=O)N3CC(C(C)C)N=C3c3ncc(C(=O)NC4CCOCC4)cc32)cc(OC)c1 (stereo not drawn) [Example 58, 6-(3,5-dimethoxybenzyl)-5-oxo-2-(propan-2-yl)-n-(tetrahydro-2H-pyran-4-yl)-2,3,5,6-tetrahydroimidazo[1,2-c]pyrido[2,3-e]pyrimidine-8-carboxamide]	9.2 µM		
CC(C)(C)c1nnc2c3ncc(N4CCOCC4)cc3c(Cc3ccc(Cl)cc3)nn12 [Example 111, 3-tert-butyl-6-(4-chlorobenzyl)-8-(morpholin-4-yl)pyrido[2,3-d][1,2,4]triazolo[4,3-b]pyridazine]			IC50 (Table 8): 0.102 µM
COc1cc(Cn2c(=O)n3c(C)c(C(C)C)nc3c3ncc(N4CCN(C(C)=O)CC4)cc32)cc(OC)c1 [Example 84, 8-(4-acetylpiperazin-1-yl)-6-(3,5-dimethoxybenzyl)-3-methyl-2-(propan-2-yl)imidazo[1,2-c]pyrido[2,3-e]pyrimidin-5(6H)-one]		0.259 µM	
COc1cc(Cn2c(=O)n3c(C)nnc3c3ncc(N4CCOCC4)cc32)cc(OC)c1 [Example 101, 6-(3,5-dimethoxybenzyl)-3-methyl-8-(morpholin-4-yl)pyrido[2,3-e][1,2,4]triazolo[4,3-c]pyrimidin-5(6H)-one]		2.44 µM	
COc1cc(Cc2nn3c(COC(C)C)nnc3c3ncc(N4CCOCC4)cc23)cc(OC)c1 [Example 119, 6-(3,5-dimethoxybenzyl)-8-(morpholin-4-yl)-3-[(propan-2-yloxy)methyl]pyrido[2,3-d][1,2,4]triazolo[4,3-b]pyridazine]			IC50 (Table 8): 1.21 µM
Cc1c(C(C)C)nc2c3ncc(C(=O)NCCO)cc3n(Cc3ccc(Cl)cc3)c(=O)n12 [Example 95, 6-(4-chlorobenzyl)-n-(2-hydroxyethyl)-3-methyl-5-oxo-2-(propan-2-y1)-5,6-dihydroimidazo[1,2-c]pyrido[2,3-e]pyrimidine-8-carboxamide]		2.98 µM	
COc1ccc(Cn2c(=O)n3c(C)c(C(C)C)nc3c3ncc(N4CC5(COC5)C4)cc32)cc1 [Example 93, 6-(4-methoxybenzyl)-3-methyl-8-(2-oxa-6-azaspiro[3.3]heptan-6-yl)-2-(propan-2-yl)imidazo[1,2-c]pyrido[2,3-e]pyrimidin-5(6H)-one]		1.01 µM	
COc1ccc(Cn2c(=O)n3c(C4(C)CC4)nnc3c3ncc(N4CCOCC4)cc32)cc1 [Example 174, 6-(4-methoxybenzyl)-3-(1-methylcyclopropyl)-8-(morpholin-4-yl)pyrido[2,3-e][1,2,4]triazolo[4,3-c]pyrimidin-5(6H)-one]			IC50 (Table 9): 0.0785 µM
COc1cc(Cn2c(=O)n3c(C)c(C)nc3c3ncc(N4CC5(COC5)C4)cc32)cc(OC)c1 [Example 81, 6-(3,5-dimethoxybenzyl)-2,3-dimethyl-8-(2-oxa-6-azaspiro[3.3]heptan-6-yl)imidazo[1,2-c]pyrido[2,3-e]pyrimidin-5(6H)-one]		0.269 µM	
COc1cc(Cn2c(=O)n3c(C)c(C(C)C)nc3c3ncc(N4CCOCC4)cc32)cc(OC)c1 [Example 79, 6-(3,5-dimethoxybenzyl)-3-methyl-8-(morpholin-4-yl)-2-(propan-2-yl)imidazo[1,2-c]pyrido[2,3-e]pyrimidin-5(6H)-one]		0.0537 µM	
CC(C)c1nnc2c3ncc(N4CCOCC4)cc3c(Cc3ccc(Cl)cc3)nn12 [Example 127, 6-(4-chlorobenzyl)-8-(morpholin-4-yl)-3-(propan-2-yl)pyrido[2,3-d][1,2,4]triazolo[4,3-b]pyridazine]			IC50 (Table 8): 0.147 µM
COCC1CN(c2cnc3c(c2)c(Cc2cc(OC)cc(OC)c2)nn2c(CC(C)C)nnc32)C1 [Example 121, 6-(3,5-dimethoxybenzyl)-8-[3-(methoxymethyl)azetidin-1-yl]-3-(2-methylpropyl)pyrido[2,3-d][1,2,4]triazolo[4,3-b]pyridazine]			IC50 (Table 8): 1.15 µM

More lines, main results first:

IC50 (Table 6)	IC50 (Table 7)	Structure (SMILES)	also measured
0.35 µM		CC(C)CC1CN2C(=O)N(Cc3ccc(Cl)cc3)c3cc(N4CCOCC4)cnc3C2=N1 (stereo not drawn) [Example 30, 6-(4-chlorobenzyl)-2-(2-methylpropyl)-8-(morpholin-4-y1)-2,6-dihydroimidazo[1,2-c]pyrido[2,3-e]pyrimidin-5(3H)-one]	
	0.153 µM	O=c1n(Cc2ccc(Cl)cc2)c2cc(N3CCOCC3)cnc2c2nnc(Cc3cccnc3)n12 [Example 100, 6-(4-chlorobenzyl)-8-(morpholin-4-y1)-3-(pyridin-3-ylmethyl)pyrido[2,3-e][1,2,4]triazolo[4,3-c]pyrimidin-5(6H)-one]	
	0.394 µM	COc1ccc(Cn2c(=O)n3c(C(C)C)nnc3c3ncc(N4CCOCC4)cc32)cc1 [Example 97, 6-(4-methoxybenzyl)-8-(morpholin-4-yl)-3-(propan-2-yl)pyrido[2,3-e][1,2,4]triazolo[4,3-c]pyrimidin-5(6H)-one]	
1.25 µM		CCC1CN2C(=O)N(Cc3ccc(OC)cc3)c3cc(N4CCOCC4)cnc3C2=N1 (stereo not drawn) [Example 52, 2-ethyl-6-(4-methoxybenzyl)-8-(morpholin-4-y1)-2,6-dihydroimidazo[1,2-c]pyrido[2,3-e]pyrimidin-5(3H)-one]	
0.69 µM		COCC1CN(c2cnc3c(c2)N(Cc2ccc(Cl)cc2)C(=O)N2CC(C(C)C)N=C32)C1 (stereo not drawn) [Example 17, 6-(4-chlorobenzyl)-8-[3-(methoxymethyl)azetidin-1-yl]-2-(propan-2-y1)-2,6-dihydroimidazo[1,2-c]pyrido[2,3-e]pyrimidin-5(3H)-one]	
	0.203 µM	CCn1ccc(-c2nnc3c4ncc(N5CCOCC5)cc4n(Cc4ccc(Cl)cc4)c(=O)n23)n1 [Example 109, 6-(4-chlorobenzyl)-3-(1-ethyl-1h-pyrazol-3-yl)-8-(morpholin-4-yl)pyrido[2,3-e][1,2,4]triazolo[4,3-c]pyrimidin-5(6H)-one]	
0.678 µM		COc1ccc(CN2C(=O)N3CC(CC(C)C)N=C3c3ncc(N4CCOCC4)cc32)cc1 (stereo not drawn) [Example 37, 6-(4-methoxybenzyl)-2-(2-methylpropyl)-8-(morpholin-4-yl)-2,6-dihydroimidazo[1,2-c]pyrido[2,3-e]pyrimidin-5(3H)-one]	
2.04 µM		COc1ccc(CN2C(=O)N3C(=NCC3CC(C)C)c3ncc(N4CCOCC4)cc32)cc1 (stereo not drawn) [Example 38, 6-(4-methoxybenzyl)-3-(2-methylpropyl)-8-(morpholin-4-yl)-2,6-dihydroimidazo[1,2-c]pyrido[2,3-e]pyrimidin-5(3H)-one]	
0.301 µM		COc1ccc(CN2C(=O)N3CC(C(C)C)N=C3c3ncc(N4CCOCC4)cc32)cc1 (stereo not drawn) [Example 18, 6-(4-methoxybenzyl)-8-(morpholin-4-yl)-2-(propan-2-yl)-2,6-dihydroimidazo[1,2-c]pyrido[2,3-e]pyrimidin-5(3H)-one]	
0.428 µM		O=C1N(Cc2ccc(Cl)cc2)c2cc(N3CCOCC3)cnc2C2=NCC(C3CC3)N12 (stereo not drawn) [Example 12, 6-(4-chlorobenzyl)-3-cyclopropyl-8-(morpholin-4-yl)-2,6-dihydroimidazo[1,2-c]pyrido[2,3-e]pyrimidin-5(3H)-one]	
0.469 µM		O=C1N(Cc2ccc(Cl)cc2)c2cc(N3CCOCC3)cnc2C2=NCC(C3CCCCC3)N12 (stereo not drawn) [Example 26, 6-(4-chlorobenzyl)-3-cyclohexyl-8-(morpholin-4-yl)-2,6-dihydroimidazo[1,2-c]pyrido[2,3-e]pyrimidin-5(3H)-one]	
